According to US20120207743A1 (priority 2011, published 2012):

System: DU-145 cells
Assay type: cell-based, Human

## C=C1[C@@H](C)[C@H]2[C@H](Cc3ccccc3)NC(=O)[C@]23[C@H](OC(C)=O)/C=C/[C@@](C)(O)C(=O)[C@@H](C)C/C=C/[C@H]3[C@@H]1O [Cytochalasin-D]
  Reduction in cell migration compared to cells treated with media alone: did not migrate
  Relative Wound Density at 24 Hours, Mean: 3.3 ± 0.2
  Relative Wound Density at 24 Hours, Percent Relative to Media: 4%
